Reference: patent publication US20220160812A1, “A PHARMACEUTICALLY ACTIVE SUBSTANCE” (Cytopharma GmbH, priority 2019, published 2022)
“Also recorded” adds a separate entry of the source.

Columns and labels:
[1] = system: human breast carcinoma cells (MDA-MB-231); test: subG1 cell cycle FACS apoptosis assay, MDA-MB-231 cells; assay type: cell-based; conditions: about 24 hours; for apoptosis-inducing activity (subG1) relative to peptides SEQID No 28 and SEQID No 1: MDA-MB-231, SEQID No 41 at 50 μM versus monomeric peptides at 100 μM, FIG. 18
Protocol: (§1) The adherent cells (A375 and BxPC-3 cells and MDA-MB-231, respectively) are seeded 24 hours before induction in 6-well plates in culture medium. For this, the cells are washed with PBS, then incubated with trypsin/EDTA solution at 37 degrees Celsius and suspended in culture medium. The 6-well plates are loaded with 1×10^5 cells/cm^2 in culture medium and the cells incubated for 24 hours until induction with the peptides in the incubator. For induction, the peptides are diluted in fresh culture medium. As control solutions, culture medium without peptide (DMSO-containing) in culture medium or etoposide solution is added. The cells are washed with PBS. Thereafter the peptide solution in culture medium is added to the cells. After incubation in the incubator (37° C., 5% CO2) between 1.5 and 24 hours, the cell supernatant is transferred to 15 ml centrifuge tubes, the cells are washed with 0.75 ml PBS and then with 0.5 ml versene solution. Both washings are combined with the cell supernatant. The cells are then added with 0.5 ml of trypsin/EDTA solution and incubated at about 37° C. for at most 10 minutes until the cells detached. The cell suspension is combined with cell supernatant and washings and centrifuged at about 130 g for about 10 minutes. After removing the supernatant, the cells are suspended in 400 μl of cell culture medium (without serum) and mixed with 1.2 ml of 80% ethanol/20% PBS (v/v) and incubated for 1 to 7 days at −20° C. For analysis, the cells are centrifuged at 130 g for 10 min, suspended in 2 ml PBS, and centrifuged again for 5 min. The cells are suspended in 700 μl PI buffer and incubated for 10 min at 37° C. in the dark. Subsequently, the cells are stored dark for a maximum of four hours in an ice bath, then the FACS analysis is performed.
The second method analyzes the cell cycle phases which is drawn from the relative DNA content. Cells labeled by a fluorescent dye, using either DAPI or propidium iodide (PI) were analyzed by a cell sorter. The protocols for cell cultivation, treatment and preparation and staining of the cells for the flow cytometry is given in separate examples. […] When cells die by apoptosis, cellular changes lead to diminished DNA content resulting in a new peak located before the G0/G1 peak, often called “subG1” peak (Broecker-Preuss et al. 2015; Darzynkiewicz et al., 1992; Dbaibo et al. 1998; Fischbeck et al. 2011).
The “Flowing Software 2” program is used to draw from the raw data of the flow cytometer an FSC/SSC plot. This first step is performed in order to analyze a selected cell fraction excluding cells with both small FSC and small SSC values. Therefore, a gating area is drawn in a two-dimensional FSC/SSC plot (region R-1) which contains mainly intact cells, but no small vesicles. This is initially done for each cell type using reference cells which were not incubated with substances inducing cell death. By this selection of the cell fraction, a bias is prevented which would include a very high number of small cellular vesicles (apoptotic bodies) that are formed by membrane blebbing from dying cells, which have a low DNA content but which, by their large number, would increase the fraction of presumptive subG1 cells. […] In this DNA content plot, an analytical region is drawn in the area of lower DNA content to count the cells that show a subG1 peak, as illustrated in FIG. 1. The fraction of apoptotic cells is defined as the fraction of cells with DNA content in the subG1 region as part of the total number of cells in the DNA content plot (FIG. 1).
The evaluation of the FACS analysis to determine the subG1 data was also carried out with the program Flowing Software, version 2.5.1. The fluorescence in the respective analysis channel for DAPI or propidium iodide was plotted as a histogram, the data from the respectively defined region R-1 being utilized (see FIG. 1). […]

[2] = system: BxPC-3 human pancreatic cancer cells; test: subG1 cell cycle FACS apoptosis assay, BxPC-3 cells; assay type: cell-based; conditions: BxPC-3, Protocol B, about 24 hours; for apoptosis-inducing activity (subG1) relative to peptides SEQID No 28 and SEQID No 27: SEQID No 41 at 50 μM versus monomeric peptides at 100 μM, FIG. 19
Protocol: (§2) To transfer adherent cells (A375 and BxPC-3 cells) after culture, cells are washed twice with PBS. To detach the cells, the enzyme biotase is used according to the manufacturer's instructions. For this purpose, after washing with PBS, the cells are mixed with biotase (5 ml of biotase solution per 75 cm^2 surface of the cell culture bottles) and incubated for 5 min at 37 degrees Celsius, and the biotase is separated by centrifugation. Cells cultivated in suspension (MEC-1 and lymphocytes) were transferred by dilution. The cells are suspended in culture medium and counted, each time 1.5×10^5 cells/cm^2 are seeded in 48-well plates and cultured for between 1.5 and 24 hours at 37 degrees Celsius, 5% CO2. Peptides are pre-diluted from stock solution with culture medium and 200 μl of peptide solution added so that final concentrations of 30 to 500 μM peptide are present in at most 1% (v/v) DMSO. As control solutions, culture medium without peptide (DMSO-containing) in culture medium or etoposide solution is added. After incubating the cells for several hours, the cell supernatant is transferred to a FACS tube for each batch and, after washing the cells with PBS, the wash solution is added. Then the cells are incubated with 200 μl of biotase solution for 10 min, 37° C., the cells with the biotase are also transferred to the FACS tube and the cells are collected by centrifugation for 5 min. The cell pellet is suspended in 500 μl of serum-free culture medium, then 1.5 ml of cold 80% ethanol (ethanol/PBS-80/20, v/v, stored at −20° C.) is added, the FACS tubes sealed and stored at −20 degrees Celsius for 15 to 18 h. Thereafter, the cells are centrifuged for 5 minutes at 120 g, suspended after removal of the supernatant in 2 ml PBS and incubated at 37 degrees Celsius for 30 minutes. After re-centrifugation, the cells are suspended in 0.5 ml DAPI solution and incubated for 15 min at 20 degrees Celsius in the dark. Thereafter, the cells are stored dark for a maximum of four hours in an ice bath, followed by the FACS analysis.
as §1, with “performed. […]” for “performed.”

A375 melanoma cells = test: subG1 cell cycle FACS apoptosis assay, A375 melanoma cells; assay type: cell-based, human; conditions: A375, Protocol B, 100 μM, about 24 hours, FIG. 2
Protocol: as §2, §1
The proportion of cells which have died was determined by two methods, both rely on the analysis of cells by flow cytometry, often called FACS analysis. […]

m-v-v-y-f-r-k [SEQID No 4]
apoptosis-inducing activity (subG1), comparison in words ([1]; MDA-MB-231, 200 μM, FIG. 13): increased apoptosis-inducing activity compared to the peptide SEQ C1

k-m-v-v-y-f-r [SEQID No 2]
apoptosis-inducing activity (subG1), comparison in words ([1]; MDA-MB-231, 200 μM, FIG. 13): increased apoptosis-inducing activity compared to the peptide SEQ C1 | apoptosis induction (subG1), comparison in words ([2]; 100 μM, FIG. 14): stronger apoptosis induction compared to SEQ C1

k-k-w-m-v-v-y-f-r-k-s-g-s-g-s-k-k-w-m-v-v-y-f-r-k [SEQID No 41]
apoptosis-inducing activity (subG1) relative to peptides SEQID No 28 and SEQID No 1 [1]: at least double | apoptosis-inducing activity (subG1) relative to peptides SEQID No 28 and SEQID No 1 ([1]; listed as dimeric peptide): more than two-fold | apoptosis-inducing activity (subG1) relative to peptides SEQID No 28 and SEQID No 27 [2]: at least double | apoptosis-inducing activity (subG1) relative to peptides SEQID No 28 and SEQID No 27 ([2]; listed as dimeric peptide): more than two-fold

m-v-v-y-f-r-w [SEQID No 3]
apoptosis-inducing activity (subG1), comparison in words ([1]; MDA-MB-231, 200 μM, FIG. 13): increased apoptosis-inducing activity compared to the peptide SEQ C1 | apoptosis induction (subG1), comparison in words ([2]; 100 μM, FIG. 14): stronger apoptosis induction compared to SEQ C1

w-w-m-v-v-y-f-r [SEQID No 12]
apoptosis-inducing activity (subG1), comparison in words ([1]; MDA-MB-231, 200 μM, FIG. 13): slightly decreased activity compared to peptide SEQID No 1; also recorded: remarkably improved efficiency than SEQ C1 | apoptosis induction (subG1), comparison in words ([2]; 100 μM, FIG. 14): stronger apoptosis induction compared to SEQ C1

w-m-v-v-y-f-r [SEQID No 1]
apoptosis-inducing activity (subG1), comparison in words ([1]; MDA-MB-231, 200 μM, FIG. 13): increased apoptosis-inducing activity compared to the peptide SEQ C1 | apoptosis induction (subG1), comparison in words ([2]; 100 μM, FIG. 14): stronger apoptosis induction compared to SEQ C1

k-w-m-v-v-y-f-r [SEQID No 9]
apoptosis efficiency (subG1), comparison in words (A375 melanoma cells): extraordinary increased activity compared to peptide SEQ C1 | apoptosis efficiency (subG1) in view of Peptide SEQ C1 ([2]; 100 μM, FIG. 14): at least fourfold | apoptosis efficiency (subG1) in view of Peptide SEQ No 12 ([2]; 100 μM, FIG. 14): at least threefold | apoptosis induction (subG1), comparison in words ([2]; 100 μM, FIG. 14): stronger apoptosis induction compared to SEQ C1; also recorded: strongly improved activity compared to peptide SEQID No 1

r-s-t-q-k-w-m-v-v-y-f-r-k [SEQID No 40]
apoptosis-inducing activity (subG1), comparison in words ([1]; MDA-MB-231, 100 μM, FIG. 16, listed as SEQID 40): slightly smaller efficiency than SEQID No 33 | apoptosis efficiency (subG1), comparison in words ([2]; 100 μM, FIG. 17): weaker activity

r-a-s-k-s-q-t-v-k-k-w-m-v-v-y-f-r-k-s-a-r [SEQID No 35]
apoptosis efficiency (subG1), in words ([2]; 100 and 200 μM, Examples 107-110): slightly higher apoptosis than the peptide sequence SEQID NO 33; also recorded: considerable efficiency to induce apoptosis in pancreatic cancer cells

q-k-w-m-v-v-y-f-r-k [SEQID No 28]
apoptosis-inducing activity (subG1), comparison in words ([1]; MDA-MB-231, 100 μM, FIG. 15): higher apoptosis-inducing activity | apoptosis-inducing activity (subG1), comparison in words ([1]; MDA-MB-231, 100 μM, FIG. 15, listed as SEQID NO 28): improvement over SEQID NO 27
